The assay has as its system KB cells. Description: Antiproliferative activity against KB cells, cell viability by colorimetric MTT reduction assay. Type of assay: cell-based. The note with it: Homo sapiens. As for the experimental part:
Plate KB cells (2X10^3 cells/well) and allow to grow for 18 hours. Treat with 2'-deoxy-5-(1-fluoroethenyl)uridine (15ng/mL) for 24 hours. Wash the compound and expose cells to 5-fluorouracil for another 72 hours. Determine the cell viability by a colorimetric assay, essentially as described by Carmichael et al. [Cancer Res. 47, 936 (1987)], whereby the cellular reduction of MTT [3-(4,5-dimethylthiazol-2-yl)-2,5-diphenyltetrazolium bromide] is measured.
Calculate IC50 values for the individual treatments as well as for the combined treatments of 2'-deoxy-5-(1-fluoroethenyl)-uridine with 5-fluorouracil. The IC50 values at the various concentrations of 2'-deoxy-5-(1-fluoroethenyl)-uridine alone, 5-fluorouracil alone and 2'-deoxy-5-(1-fluoroethenyl)-uridine in combination with 5-fluorouracil are presented in Table 1.

This note sets out measurements from patent EP0719271B1, “5-(1-FLUORO-VINYL)-1H-PYRIMIDINE-2,4-DIONE DERIVATIVES USEFUL AS ANTINEOPLASTIC AGENTS” (MERRELL PHARMACEUTICALS INC., priority 1993, dated 1995).

Read-outs that look alike come from different tables or passages of the source.

Turning to `C=C(F)c1cn([C@H]2C[C@H](O)[C@@H](CO)O2)c(=O)[nH]c1=O` [2'-Deoxy-5-(1-fluoroethenyl)-uridine, 2'-deoxy-5-(1-fluoroethenyl)uridine], the IC50 (individual treatment (compound alone), KB cells, 2X10^3 cells/well, MTT viability, read-out: IC50) came out at 9.4 µM.

With `O=c1[nH]cc(F)c(=O)[nH]1` [5-Fluorouracil], the concentration for half-maximal inhibition (IC50) (KB) came to 60 µM.
